Assay [1] concerns Adriamycin resistant strain 2780 AD cells of human ovarian cancer A2780 cells. The assay can be described thus: Potentiating effect on incorporation of 3H-vincristine into adriamycin-resistant cancer cells. Type of assay: cell-based. Conditions: Homo sapiens, 2780AD, 2 h, 20 nM 3H-vincristine, control = 100, read-out: 3H-vincristine accumulation; for activity at 1 µg/mL: compound 1 μg/ml; for activity at 10 µg/mL: compound 10 μg/ml. An outline of the steps:
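Cells at 1×10^6/ml were grown 24 h, then incubated 2 h at 37 °C in RPMI-1640 with 20 nM ^3H-vincristine, 5% FCS and compound (solution at 1.0 or 10.0 μg/ml). After washing and lysis in 0.2N NaOH, cellular ^3H-vincristine was counted by scintillation.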

For assay [2], the system named is Adriamycin resistant strain K562/ADM cells of human myeloleukemia K562 cells. The assay can be described thus: Potentiating effect on activity of vincristine against adriamycin-resistant cells (growth inhibition). Type of assay: cell-based. Conditions: for effect in potentiating vincristine activity, multiples of the control: ratio to control IC50 655. From the text:
Potentiating Effect of the Compounds on Activity of Anticancer Drugs

For assay [3], the system named is Vincristine-resistant strain P388/VCR cells of mouse leukemia P388 cells. The assay can be described thus: Potentiating effect on vincristine in mice having vincristine-resistant mouse leukemia (survival). Type of assay: in vivo, mouse (female CDFI mice). Conditions: peritoneal, once a day for 5 days; for T/C (rate of life prolongation): control = 100.
For assay [4], the system named is drug-resistant cancer cells. The settings on record: calcium antagonists such as verapamil; cited from earlier work.
Where [5] appears, read: compound 3 mg/kg + vincristine 100 ug/kg.
Where [6] appears, read: compound 10 mg/kg + vincristine 100 ug/kg.
Where [7] appears, read: compound 30 mg/kg + vincristine 100 ug/kg.

On to `OC(COc1cccc2ncccc12)CN1CCN(C(c2ccccc2)c2ccccc2)CC1` (stereo not shown) [Example 1, 5-[3-(4-Diphenylmethylpiperazine-1-yl)-2-hydroxypropoxy]quinoline], for which the activity at 1 µg/mL in assay [1] amounted to 717%. The activity at 10 µg/mL in assay [1] stood at 747%. For the same molecule, the “effect in potentiating vincristine activity, multiples of the control” value in assay [2] (compound 0.3 μg/ml) stood at 151.2; in assay [2] (compound 1 μg/ml), 342.1; in assay [2] (compound 3 μg/ml), 433.3. Also, the Average surviving period is recorded as 12.4 ± 0.2 days in assay [3] (setting [5]), 12.2 ± 0.4 days in assay [3] (setting [6]) and 12.8 ± 0.4 days in assay [3] (setting [7]). Also, the results for the “T/C (rate of life prolongation)” value in assay [3] (setting [5]), in assay [3] (setting [6]) and in assay [3] (setting [7]) were 111%, 109% and 114%, respectively.
Turning to `OC(COc1cccc2ncccc12)CN1CCN(C2c3ccccc3CCc3ccccc32)CC1` (stereo not shown) [Example 2, 5-[3-(4-(Dibenzosuberane-5-yl)piperazine-1-yl)-2-hydroxypropoxy]quinoline], in assay [1], the activity at 1 µg/mL worked out at 663%. For the same molecule, the activity at 10 µg/mL in assay [1] turned out to be 709%. Besides, the “effect in potentiating vincristine activity, multiples of the control” value in assay [2] (compound 0.3 μg/ml) came out at 330.3; in assay [2] (compound 1 μg/ml), 388.0; in assay [2] (compound 3 μg/ml), 550.0. Also, the Average surviving period in assay [3] (setting [5]) stood at 12.6 ± 0.2 days; in assay [3] (setting [7]) it was 15.2 ± 0.7 days. Further, the “T/C (rate of life prolongation)” value in assay [3] (setting [5]) was determined as 113%; in assay [3] (setting [7]) it was 136%.
In the case of `O=C(N1CCN(CC(O)COc2cccc3ncccc23)CC1)N1c2ccccc2CCc2ccccc21` (stereo not shown) [Example 60, 5-[3-(4-(Iminodibenzyl-5-carbonyl)piperazine-1-yl)-2-hydroxypropoxy]quinoline], in assay [1], the activity at 1 µg/mL was determined as 643% and the activity at 10 µg/mL was found to be 760%. Moreover, in assay [3] (setting [7]), the Average surviving period is 12.4 ± 0.7 days and the “T/C (rate of life prolongation)” value worked out at 117%.
In the same order, the values of `Cc1cc(C)c2c(OCC(O)CN3CCN(C(=O)N4c5ccccc5CCc5ccccc54)CC3)cccc2n1` (stereo not shown) [Example 61, 2,4-Dimethyl-5-[3-(4-(iminodibenzyl-5-carbonyl)piperazine-1-yl)-2-hydroxypropoxy]quinoline] are 519%, 602%, 11.5 ± 0.3 days and 108%.
Take `OC(COc1cccc2ncccc12)CN1CCC(C2(O)c3ccccc3CCc3ccccc32)CC1` (stereo not shown) [Example 78, 5-[2-Hyroxy-3-(4-(5-hydroxydibenzosuberane-5-yl)piperidine-1-yl)propoxy]quinoline]: in assay [1], the activity at 1 µg/mL was found to be 943%. In addition, in assay [3] (setting [7]), the Average surviving period stood at 12.8 ± 0.8 days and the “T/C (rate of life prolongation)” value was determined as 120%.
As for `OC(COc1cccc2ncccc12)CN1CCC(=C2c3ccccc3CCc3ccccc32)CC1` (stereo not shown) [Example 80, 5-[3-(4-(Dibenzosuberane-5-ylidene)piperidine-1-yl)-2-hydroxypropoxy]quinoline], in assay [1], the activity at 1 µg/mL stood at 942%. Also, in assay [3] (setting [7]), the Average surviving period was 14.3 ± 0.6 days and the “T/C (rate of life prolongation)” value was 134%.
Consider `OC(COc1cccc2ncccc12)CN1CCC(C2c3ccccc3CCc3ccccc32)CC1` (stereo not shown) [Example 81, 5-[3-(4-(Dibenzosuberane-5-yl)piperidine-1-yl)-2-hydroxypropoxy]quinoline], for which the activity at 1 µg/mL in assay [1] was determined as 992%. In assay [3] (setting [7]), the Average surviving period is on record as 13.2 ± 0.9 days and the “T/C (rate of life prolongation)” value was determined as 123%.
For `CN(CCCN1c2ccccc2CCc2ccccc21)CC(O)COc1cccc2ncccc12` (stereo not shown) [Example 82, 5-[3-(N-Methyl-N-(3-(5H-10,11-dihydrodibenzo(b,f)-azepin-5-yl)propyl)amino]-2-hydroxypropoxy]quinoline], the activity at 1 µg/mL in assay [1] worked out at 667%. Besides, in assay [3] (setting [7]), the Average surviving period is 11.2 ± 1.4 days and the “T/C (rate of life prolongation)” value is 105%.
Regarding `c1ccc2c(c1)CCc1ccccc1C2N1CCN(CCCOc2cccc3ncccc23)CC1` [Example 83, 5-[3-(4-(Dibenzosuberane-5-yl)piperazine-1-yl)propoxy]quinoline], in assay [1], the activity at 1 µg/mL was 957%. In addition, in assay [3] (setting [7]), the Average surviving period amounted to 13.5 ± 0.5 days and the “T/C (rate of life prolongation)” value is 126%.
As to `c1ccc(C(=C2CCN(CCCOc3cccc4ncccc34)CC2)c2ccccc2)cc1` [Example 84, 5-[3-(4-(Diphenylmethylene)piperidine-1-yl)propoxy]quinoline], in assay [1], the activity at 1 µg/mL was determined as 159% and the activity at 10 µg/mL was 878%. Also, in assay [3] (setting [7]), the Average surviving period amounted to 13.0 ± 0.7 days and the “T/C (rate of life prolongation)” value was determined as 121%.
Take `CC[C@]1(O)C[C@H]2CN(CCc3c([nH]c4ccccc34)[C@@](C(=O)OC)(c3cc4c(cc3OC)N(C=O)[C@H]3[C@@](O)(C(=O)OC)[C@H](OC(C)=O)[C@]5(CC)C=CCN6CC[C@]43[C@@H]65)C2)C1` [Vincristine, vincristine, reference compound]: the IC50 in assay [2] (Homo sapiens, K562, read-out: IC50 (vincristine concentration at which 50% of the growth was inhibited)) was 0.655 µg/mL.
On to `COc1ccc(CCN(C)CCCC(C#N)(c2ccc(OC)c(OC)c2)C(C)C)cc1OC` (stereo not shown) [verapamil], for which the “prevention of discharge of anticancer drugs from cancer cells” value in assay [4] is “prevent discharge of anticancer drugs from cancer cells”.

Values taken from US5405843A, “Quinoline derivatives” (Mitsui Toatsu Chemicals, Incorporated, priority 1988, dated 1995).
